Results: patent publication US11273163B2, “Antiviral treatment” (priority 2020, dated 2022)

Test system: SARS-CoV-2 B.1.1.7
Assay: microbe, parasite or virus in culture
Type: cell-based

For `CN1CCCC(n2nc(Cc3ccc(Cl)cc3)c3ccccc3c2=O)CC1` (stereo not shown) [Azelastine, 4-[(4-chlorophenyl)methyl]-2-(1-methylazepan-4-yl)phthalazin-1-one], which inhibition of infection is on record?
Its inhibition of infection is “over 90%”.
